Laboratory results reported in PubChem BioAssay (NCI).
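Grown in 96-well plates, cells were treated for 48 hours with each compound at five concentrations. Insufficient inhibition: endpoint recorded as highest concentration tested. At the TGI there is no net growth.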

Tests used:
Assay in all cases: NCI tumour cell line growth inhibition, 48 h
[1] = system: HT29 colon
[2] = system: SF-539 CNS
[3] = system: SF-268 CNS
[4] = system: A498 renal
[5] = system: HCC-2998 colon
[6] = system: A549 NSCLC
[7] = system: K-562 leukemia
[8] = system: DU-145 prostate
[9] = system: SK-MEL-2 melanoma
[10] = system: OVCAR-4 ovarian
[11] = system: CCRF-CEM leukemia
[12] = system: UACC-62 melanoma
[13] = system: OVCAR-3 ovarian
[14] = system: UACC-257 melanoma
[15] = system: HCT-116 colon
[16] = system: M14 melanoma
[17] = system: HS 578T breast
[18] = system: SW-620 colon
[19] = system: MDA-MB-231 breast
[20] = system: TK-10 renal
[21] = system: RXF 393 renal
[22] = system: MDA-N
[23] = system: LOX IMVI melanoma
[24] = system: UO-31 renal
[25] = system: CAKI-1 renal
[26] = system: KM12 colon
[27] = system: HL-60(TB) leukemia
[28] = system: T-47D breast
[29] = system: SN12C renal
[30] = system: HCT-15 colon
[31] = system: NCI-H23 lung
[32] = system: SK-MEL-5 melanoma
[33] = system: MOLT-4 leukemia
[34] = system: RPMI-8226 leukemia
[35] = system: NCI-H226 lung
[36] = system: 786-0 renal
[37] = system: MCF7 breast
[38] = system: BT-549 breast
[39] = system: OVCAR-8 ovarian
[40] = system: NCI-H522 lung
[41] = system: EKVX NSCLC
[42] = system: SK-MEL-28 melanoma
[43] = system: SNB-19 CNS
[44] = system: SNB-75 CNS
[45] = system: U251 CNS
[46] = system: PC-3 prostate
[47] = system: MDA-MB-435
[48] = system: MALME-3M melanoma
[49] = system: NCI/ADR-RES ovarian
[50] = system: IGROV1 ovarian
[51] = system: NCI-H460 lung
[52] = system: OVCAR-5 ovarian
[53] = system: COLO 205 colon
[54] = system: SK-OV-3 ovarian
[55] = system: SR leukemia
[56] = system: HOP-92 NSCLC
[57] = system: SF-295 CNS
[58] = system: HOP-62 NSCLC

## CC(C(=O)O)C(C)(O)C(=O)O (stereo not drawn)
[1]
  TGI: > 100 µM
[2]
  TGI: > 100 µM
[3]
  TGI: > 100 µM
[4]
  TGI: > 100 µM
[5]
  TGI: > 100 µM
[6]
  TGI: > 100 µM
[7]
  TGI: > 100 µM
[8]
  TGI: > 100 µM
[9]
  TGI: > 100 µM
[10]
  TGI: > 100 µM
[11]
  TGI: > 100 µM
[12]
  TGI: > 100 µM
[13]
  TGI: > 100 µM
[14]
  TGI: > 100 µM
[15]
  TGI: > 100 µM
[16]
  TGI: > 100 µM
[17]
  TGI: > 100 µM
[18]
  TGI: > 100 µM
[19]
  TGI: > 100 µM
[20]
  TGI: > 100 µM
[21]
  TGI: > 100 µM
[22]
  TGI: > 100 µM
[23]
  TGI: > 100 µM
[24]
  TGI: > 100 µM
[25]
  TGI: > 100 µM
[26]
  TGI: > 100 µM
[27]
  TGI: > 100 µM
[28]
  TGI: > 100 µM
[29]
  TGI: > 100 µM
[30]
  TGI: > 100 µM
[31]
  TGI: > 100 µM
[32]
  TGI: > 100 µM
[33]
  TGI: > 100 µM
[34]
  TGI: > 100 µM
[35]
  TGI: > 100 µM
[36]
  TGI: > 100 µM
[37]
  TGI: > 100 µM
[38]
  TGI: > 100 µM
[39]
  TGI: > 100 µM
[40]
  TGI: > 100 µM
[41]
  TGI: > 100 µM
[42]
  TGI: > 100 µM
[43]
  TGI: > 100 µM
[44]
  TGI: > 100 µM
[45]
  TGI: > 100 µM
[46]
  TGI: > 100 µM
[47]
  TGI: > 100 µM
[48]
  TGI: > 100 µM
[49]
  TGI: > 100 µM
[50]
  TGI: > 100 µM
[51]
  TGI: > 100 µM
[52]
  TGI: > 100 µM
[53]
  TGI: > 100 µM
[54]
  TGI: > 100 µM
[55]
  TGI: > 100 µM

## O=c1cc(-c2cc(O)c(O)c(-c3c(O)cc4oc(-c5ccc(O)c(O)c5)cc(=O)c4c3O)c2)oc2cc(O)cc(O)c12
[1]
  TGI: > 25 µM
[2]
  TGI: > 25 µM
[3]
  TGI: > 25 µM
[4]
  TGI: > 25 µM
[5]
  TGI: > 25 µM
[6]
  TGI: > 25 µM
[7]
  TGI: > 25 µM
[8]
  TGI: > 25 µM
[9]
  TGI: > 25 µM
[10]
  TGI: > 25 µM
[11]
  TGI: > 25 µM
[12]
  TGI: > 25 µM
[13]
  TGI: > 25 µM
[14]
  TGI: > 25 µM
[56]
  TGI: > 25 µM
[15]
  TGI: > 25 µM
[16]
  TGI: > 25 µM
[17]
  TGI: > 25 µM
[18]
  TGI: > 25 µM
[19]
  TGI: > 25 µM
[20]
  TGI: > 25 µM
[21]
  TGI: > 25 µM
[22]
  TGI: > 25 µM
[23]
  TGI: > 25 µM
[24]
  TGI: > 25 µM
[25]
  TGI: > 25 µM
[27]
  TGI: > 25 µM
[28]
  TGI: > 25 µM
[29]
  TGI: > 25 µM
[30]
  TGI: > 25 µM
[31]
  TGI: > 25 µM
[32]
  TGI: > 25 µM
[33]
  TGI: > 25 µM
[35]
  TGI: > 25 µM
[37]
  TGI: > 25 µM
[38]
  TGI: > 25 µM
[39]
  TGI: > 25 µM
[41]
  TGI: > 25 µM
[42]
  TGI: > 25 µM
[57]
  TGI: > 25 µM
[44]
  TGI: > 25 µM
[45]
  TGI: > 25 µM
[46]
  TGI: > 25 µM
[47]
  TGI: > 25 µM
[48]
  TGI: > 25 µM
[49]
  TGI: > 25 µM
[50]
  TGI: > 25 µM
[51]
  TGI: > 25 µM
[52]
  TGI: > 25 µM
[53]
  TGI: > 25 µM
[54]
  TGI: > 25 µM
[58]
  TGI: > 25 µM
[55]
  TGI: > 25 µM
